Measured values taken from US20080161419A1, “Prophylactic Antimigraine Agents” (priority 2004, published 2008).
Values belong to the compound of their own block, whether it stands above or below them.

Experiments:
[1] = tested on: migraine model of guinea pig; test: Preventive effect in guinea pig migraine model (leaked protein from dural blood vessel caused by 5-HT); type: in vivo; details: for leakage of the protein: 10 mg/kg or 30 mg/kg of oral administration; for amount of leaked protein (fluorescence intensity per mg dura): 3 mg/kg, intraperitoneal administration, 5-HT i.v.
Procedure: In this test system, migraine preventive effect was evaluated by measuring this leaked protein in the presence of a compound to be tested, and this was carried out by partially modifying the method described in Rachel A. Spokes and Vicki C. Middlefell, European Journal of Pharmacology (1995) 281, 75-79.
Hartley male guinea pig (250-350 g) was anesthetized by peritoneal administration (i.p.) of urethane (1.5 g/kg). By applying simple cannulation to a saphena, 50 mg/kg of a fluorescent protein (FITC-BSA) was intravenously administered (i.v.) and 5 minutes thereafter, physiological saline or […] of 5-HT was intravenously administered. By carrying out perfusion with physiological saline 15 minutes thereafter, blood was washed out. […] By detaching the skull, dura mater was took out and incubated at 37° C. for 16 hours in an Eppendorf tube in the presence of physiological saline of pH 11. Centrifugation was carried out, and the supernatant was dispensed into a plate. Fluorescence intensity was measured using a fluorescence plate reader (excitation wavelength 485 nm, […] 530 nm). By measuring dura mater weight, fluorescence intensity per mg dural protein was calculated.
Values of the fluorescence intensity measured at the time of the administration of each compound and at the time of no administration are shown in FIG. 1 to FIG. 4. […] The control indicates fluorescence intensity at the time of no addition of 5-HT, namely the reference value.

human 5-HT2B receptor = target: T1, human 5-HT2B receptor (Homo sapiens, UniProt P41595); test: Binding test of 5-HT2B receptor; details: [3H]Mesulergine, human 5-HT2B receptor expressing HEK293-EBNA cell membrane
T1 construct: expressed in transfected cells; host or cells: HEK293-EBNA
T1 sequence (P41595 whole entry): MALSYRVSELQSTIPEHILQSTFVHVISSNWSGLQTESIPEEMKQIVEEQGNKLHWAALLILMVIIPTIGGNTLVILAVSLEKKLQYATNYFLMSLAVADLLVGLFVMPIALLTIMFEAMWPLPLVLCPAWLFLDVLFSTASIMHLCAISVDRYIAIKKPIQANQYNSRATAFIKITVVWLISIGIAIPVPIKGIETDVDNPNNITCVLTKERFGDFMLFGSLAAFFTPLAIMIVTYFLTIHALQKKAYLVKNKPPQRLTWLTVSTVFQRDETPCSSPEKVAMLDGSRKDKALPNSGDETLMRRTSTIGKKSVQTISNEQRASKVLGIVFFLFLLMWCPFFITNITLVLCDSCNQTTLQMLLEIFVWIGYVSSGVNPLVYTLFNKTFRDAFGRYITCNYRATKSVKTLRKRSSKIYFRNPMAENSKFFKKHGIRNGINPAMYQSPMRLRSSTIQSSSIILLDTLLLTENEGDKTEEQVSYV

human 5-HT7 receptor = target: T2, human 5-HT7 receptor (Homo sapiens, UniProt P34969); test: Binding test of 5-HT7 receptor; details: [3H]5-HT, human 5-HT7 receptor expressing CHO cell membrane
T2 construct: expressed in transfected cells; host or cells: CHO
T2 sequence (P34969 whole entry): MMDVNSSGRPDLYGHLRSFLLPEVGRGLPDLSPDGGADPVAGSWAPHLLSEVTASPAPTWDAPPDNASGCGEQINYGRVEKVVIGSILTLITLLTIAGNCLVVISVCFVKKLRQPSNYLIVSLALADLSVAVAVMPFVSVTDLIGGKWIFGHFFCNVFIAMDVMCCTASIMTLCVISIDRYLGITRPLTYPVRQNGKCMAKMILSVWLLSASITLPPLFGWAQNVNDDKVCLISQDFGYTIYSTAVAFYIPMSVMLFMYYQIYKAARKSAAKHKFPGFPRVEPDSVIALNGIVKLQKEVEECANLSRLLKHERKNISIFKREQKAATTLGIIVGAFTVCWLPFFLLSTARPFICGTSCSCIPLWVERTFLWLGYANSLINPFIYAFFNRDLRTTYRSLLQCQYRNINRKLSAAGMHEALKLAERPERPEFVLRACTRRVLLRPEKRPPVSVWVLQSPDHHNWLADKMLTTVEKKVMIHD

5-HT1A receptor = target: T3, 5-HT1A receptor (Homo sapiens, UniProt P08908); test: Affinity for other receptors: 5-HT1A; type: binding
T3 sequence (P08908 1-422): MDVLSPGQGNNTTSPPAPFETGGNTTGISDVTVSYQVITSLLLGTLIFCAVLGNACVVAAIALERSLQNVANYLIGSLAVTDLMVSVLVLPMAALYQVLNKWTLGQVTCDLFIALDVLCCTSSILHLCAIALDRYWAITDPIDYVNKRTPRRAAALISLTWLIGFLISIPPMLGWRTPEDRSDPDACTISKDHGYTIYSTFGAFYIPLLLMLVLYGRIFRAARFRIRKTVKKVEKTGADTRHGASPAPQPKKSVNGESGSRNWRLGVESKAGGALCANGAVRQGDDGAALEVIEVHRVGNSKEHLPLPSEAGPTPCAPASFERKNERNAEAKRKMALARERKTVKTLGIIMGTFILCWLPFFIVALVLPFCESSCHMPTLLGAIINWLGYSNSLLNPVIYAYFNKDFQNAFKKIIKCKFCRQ
Description: (§1) Affinity of the compound of Preparation 3 for 5-HT1A, 5-HT1B, 5-HT2A, 5-HT2C, 5-HT3, 5-HT4, 5-HT6, α1, M1 and D2 receptors was verified using conventionally known techniques (Journal of Neurochemistry (1986) 47, 529-540; Molecular Pharmacology (1982) 21, 301-314; European Journal of Pharmacology (1985) 106, 539-546; Journal of Pharmacology Experimental Therapy (1992) 263, 1127-1132; British Journal of Pharmacology (1993) 109, 618-624; Molecular Pharmacology (1993) 43, 320-327; Molecular Pharmacology (1989) 35, 324-330; Cellular Molecular Neurobiology (1988) 8, 181-191; European Journal of Pharmacology (1988) 173, 177-182).

5-HT1B receptor = 5-HT1B receptor (Homo sapiens, UniProt P28222); test: Affinity for other receptors: 5-HT1B; type: binding
Sequence of 5-HT1B receptor (P28222 whole entry): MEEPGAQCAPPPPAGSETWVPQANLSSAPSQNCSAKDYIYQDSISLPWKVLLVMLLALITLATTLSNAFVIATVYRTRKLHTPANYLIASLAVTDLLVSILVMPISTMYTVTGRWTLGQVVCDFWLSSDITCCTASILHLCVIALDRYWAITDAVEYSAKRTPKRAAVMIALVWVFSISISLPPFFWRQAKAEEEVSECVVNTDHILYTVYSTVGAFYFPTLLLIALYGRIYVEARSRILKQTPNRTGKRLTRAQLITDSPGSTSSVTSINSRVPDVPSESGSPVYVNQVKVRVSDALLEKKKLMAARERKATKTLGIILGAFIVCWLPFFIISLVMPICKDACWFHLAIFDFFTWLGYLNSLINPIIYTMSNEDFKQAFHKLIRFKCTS
Description: as §1

5-HT2A receptor = 5-HT2A receptor (Homo sapiens, UniProt P28223); test: Affinity for other receptors: 5-HT2A; type: binding
Sequence of 5-HT2A receptor (P28223 whole entry): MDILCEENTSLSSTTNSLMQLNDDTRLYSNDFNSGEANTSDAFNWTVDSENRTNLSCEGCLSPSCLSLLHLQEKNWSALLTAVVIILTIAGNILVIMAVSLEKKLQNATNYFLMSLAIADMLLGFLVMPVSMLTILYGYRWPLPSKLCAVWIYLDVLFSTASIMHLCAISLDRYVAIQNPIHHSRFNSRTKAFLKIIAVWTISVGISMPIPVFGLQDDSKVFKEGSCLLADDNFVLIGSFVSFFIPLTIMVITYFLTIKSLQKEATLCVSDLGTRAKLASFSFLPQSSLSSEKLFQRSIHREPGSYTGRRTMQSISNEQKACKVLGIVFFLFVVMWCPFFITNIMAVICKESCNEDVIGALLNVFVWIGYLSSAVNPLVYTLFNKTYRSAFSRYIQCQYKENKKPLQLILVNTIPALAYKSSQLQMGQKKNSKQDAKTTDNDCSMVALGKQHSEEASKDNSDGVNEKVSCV
Description: as §1

5-HT2C receptor = target: T4, 5-HT2C receptor (Homo sapiens, UniProt P28335); test: Affinity for other receptors: 5-HT2C; type: binding
T4 sequence (P28335 33-458): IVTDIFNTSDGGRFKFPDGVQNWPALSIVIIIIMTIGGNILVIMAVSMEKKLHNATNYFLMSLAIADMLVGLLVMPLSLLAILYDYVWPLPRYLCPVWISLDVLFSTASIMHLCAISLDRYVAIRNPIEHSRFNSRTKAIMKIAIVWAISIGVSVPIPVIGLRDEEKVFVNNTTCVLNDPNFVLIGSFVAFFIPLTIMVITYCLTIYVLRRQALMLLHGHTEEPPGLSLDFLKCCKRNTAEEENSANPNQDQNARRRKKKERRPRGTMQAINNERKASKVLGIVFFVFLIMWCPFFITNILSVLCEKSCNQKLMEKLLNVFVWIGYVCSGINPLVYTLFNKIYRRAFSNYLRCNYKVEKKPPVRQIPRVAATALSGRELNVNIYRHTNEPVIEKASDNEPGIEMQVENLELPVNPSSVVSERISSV
Description: as §1

5-HT3 receptor = target: T5, 5-HT3 receptor (Homo sapiens, UniProt P46098); test: Affinity for other receptors: 5-HT3; type: binding
T5 sequence (P46098 24-478): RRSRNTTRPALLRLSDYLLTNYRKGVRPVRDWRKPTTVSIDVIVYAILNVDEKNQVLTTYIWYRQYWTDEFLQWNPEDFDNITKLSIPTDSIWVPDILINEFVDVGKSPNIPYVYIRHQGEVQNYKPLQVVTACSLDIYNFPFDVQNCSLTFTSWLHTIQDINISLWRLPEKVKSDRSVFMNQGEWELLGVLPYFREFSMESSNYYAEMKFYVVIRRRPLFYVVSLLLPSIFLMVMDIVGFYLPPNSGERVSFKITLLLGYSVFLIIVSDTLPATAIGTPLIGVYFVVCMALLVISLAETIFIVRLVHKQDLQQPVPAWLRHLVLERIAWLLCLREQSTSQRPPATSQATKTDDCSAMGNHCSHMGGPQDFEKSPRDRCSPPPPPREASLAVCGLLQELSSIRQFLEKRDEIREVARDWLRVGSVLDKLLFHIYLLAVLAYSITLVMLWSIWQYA
Description: as §1

5-HT4 receptor = 5-HT4 receptor (Homo sapiens, UniProt Q13639); test: Affinity for other receptors: 5-HT4; type: binding
Sequence of 5-HT4 receptor (Q13639 whole entry): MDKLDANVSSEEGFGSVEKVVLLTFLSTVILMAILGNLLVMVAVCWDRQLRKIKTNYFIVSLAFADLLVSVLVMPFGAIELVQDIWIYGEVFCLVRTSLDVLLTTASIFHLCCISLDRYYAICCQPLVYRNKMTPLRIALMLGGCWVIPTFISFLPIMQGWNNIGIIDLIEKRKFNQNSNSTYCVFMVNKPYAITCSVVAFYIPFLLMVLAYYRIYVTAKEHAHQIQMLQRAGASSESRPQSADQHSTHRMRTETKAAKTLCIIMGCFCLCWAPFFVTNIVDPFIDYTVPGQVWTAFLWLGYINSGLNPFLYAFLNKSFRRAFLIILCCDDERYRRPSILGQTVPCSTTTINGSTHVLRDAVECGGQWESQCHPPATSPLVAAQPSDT
Description: as §1

5-HT6 receptor = 5-HT6 receptor (Homo sapiens, UniProt P50406); test: Affinity for other receptors: 5-HT6; type: binding
Sequence of 5-HT6 receptor (P50406 whole entry): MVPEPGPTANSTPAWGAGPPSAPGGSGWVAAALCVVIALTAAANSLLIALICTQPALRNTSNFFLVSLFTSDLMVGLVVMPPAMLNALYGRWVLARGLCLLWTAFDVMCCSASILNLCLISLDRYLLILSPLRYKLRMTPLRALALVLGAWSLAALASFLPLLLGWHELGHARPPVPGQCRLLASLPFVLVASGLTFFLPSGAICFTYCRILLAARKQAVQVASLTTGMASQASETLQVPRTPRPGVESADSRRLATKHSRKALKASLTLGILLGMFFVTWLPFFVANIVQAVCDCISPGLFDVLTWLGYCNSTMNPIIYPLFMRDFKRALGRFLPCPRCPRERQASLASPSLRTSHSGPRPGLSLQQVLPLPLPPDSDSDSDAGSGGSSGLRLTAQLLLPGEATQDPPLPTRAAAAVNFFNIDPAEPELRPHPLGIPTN
Description: as §1

α1 receptor = test: Affinity for other receptors: α1; type: binding
Description: as §1

M1 receptor = target: T6, M1 receptor (Homo sapiens, UniProt P11229); test: Affinity for other receptors: M1; type: binding
T6 sequence (P11229 1-460): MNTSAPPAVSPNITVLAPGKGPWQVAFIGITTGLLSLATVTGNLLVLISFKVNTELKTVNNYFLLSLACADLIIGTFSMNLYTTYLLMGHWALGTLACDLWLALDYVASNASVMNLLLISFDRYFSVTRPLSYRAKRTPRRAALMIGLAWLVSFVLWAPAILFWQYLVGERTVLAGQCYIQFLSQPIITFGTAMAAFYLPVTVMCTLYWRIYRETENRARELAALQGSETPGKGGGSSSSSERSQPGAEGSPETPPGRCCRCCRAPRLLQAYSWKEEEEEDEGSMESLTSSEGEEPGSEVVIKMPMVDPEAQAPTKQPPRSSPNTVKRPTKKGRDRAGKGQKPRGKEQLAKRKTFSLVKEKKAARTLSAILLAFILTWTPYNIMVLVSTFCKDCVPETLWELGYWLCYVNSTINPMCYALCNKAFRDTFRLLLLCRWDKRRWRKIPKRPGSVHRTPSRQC
Description: as §1

D2 receptor = D2 receptor (Homo sapiens, UniProt P14416); test: Affinity for other receptors: D2; type: binding
Sequence of D2 receptor (P14416 whole entry): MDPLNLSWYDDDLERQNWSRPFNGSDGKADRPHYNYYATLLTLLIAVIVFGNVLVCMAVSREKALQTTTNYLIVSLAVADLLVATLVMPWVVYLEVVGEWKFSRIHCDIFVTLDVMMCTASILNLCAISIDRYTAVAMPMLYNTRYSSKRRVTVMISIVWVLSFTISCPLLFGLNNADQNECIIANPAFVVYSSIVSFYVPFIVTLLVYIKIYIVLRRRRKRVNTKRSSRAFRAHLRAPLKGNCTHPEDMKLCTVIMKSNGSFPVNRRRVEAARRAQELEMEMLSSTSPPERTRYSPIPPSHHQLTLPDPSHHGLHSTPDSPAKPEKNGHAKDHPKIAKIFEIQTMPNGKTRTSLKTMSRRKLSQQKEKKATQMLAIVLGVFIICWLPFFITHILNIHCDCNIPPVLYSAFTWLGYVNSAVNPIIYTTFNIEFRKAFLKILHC
Description: as §1

5-HT2B receptor = details: against 5-HT1A, 5-HT1B, 5-HT2A, 5-HT2C, 5-HT3, 5-HT6, 5-HT7, α1, M1 and D2 receptors; cited from earlier work

SMILES: CCC1(OC)c2ccccc2-c2ccc(C(=O)N=C(N)N)cc21.Cl (racemic) [Preparation 72]
leakage of the protein [1]: almost completely suppressed leakage of the protein

SMILES: Cl.NC(N)=NC(=O)c1ccc2c(c1)C1(CCCO1)c1ccccc1-2 (single isomer, unassigned) [Preparation 60b]
leakage of the protein [1]: almost completely suppressed leakage of the protein

SMILES: Cl.NC(N)=NC(=O)c1ccc2c(c1)C1(CCCO1)c1ccccc1-2 (single isomer, unassigned) [Preparation 60a]
leakage of the protein [1]: almost completely suppressed leakage of the protein

SMILES: Cl.NC(N)=NC(=O)c1ccc2c(c1)C(O)c1ccccc1-2 (centres unmarked) [Preparation 3, N-(diaminomethylene)-9-hydroxy-9H-fluorene-2-carboxamide hydrochloride]
Ki (human 5-HT2B receptor): 1.8 nM
Ki (human 5-HT7 receptor): 17.6 nM
IC50 (5-HT1A receptor): ≥ 1000 nM
IC50 (5-HT1B receptor): ≥ 1000 nM
IC50 (5-HT2A receptor): ≥ 1000 nM
IC50 (5-HT2C receptor): ≥ 1000 nM
IC50 (5-HT3 receptor): ≥ 1000 nM
IC50 (5-HT4 receptor): ≥ 1000 nM
IC50 (5-HT6 receptor): ≥ 1000 nM
IC50 (α1 receptor): ≥ 1000 nM
IC50 (M1 receptor): ≥ 1000 nM
IC50 (D2 receptor): ≥ 1000 nM
amount of leaked protein (fluorescence intensity per mg dura) [1]: almost completely suppressed the amount of leaked protein

SMILES: COC1(C)c2cc(C(=O)N=C(N)N)ccc2-c2c(F)cccc21.Cl (racemic) [Preparation 87]
leakage of the protein [1]: almost completely suppressed leakage of the protein

SMILES: CC1(O)c2cc(C(=O)N=C(N)N)ccc2-c2c(F)cccc21.Cl (single isomer, unassigned) [Preparation 78b]
leakage of the protein [1]: almost completely suppressed leakage of the protein

Ki (human 5-HT7 receptor): 0.4 to 310 nM
SMILES: NC(N)=NC(=O)c1ccc2c(c1)C(Cl)c1ccccc1-2 (centres unmarked) [Preparation 4, 9-chloro-N-(diaminomethylene)-9H-fluorene-2-carboxamide]

SMILES: CC(C)c1cc(-c2ccc(F)c3ccccc23)nc(N)n1 [RS-127445, 2-amino-4-(4-fluoronaphth-1-yl)-6-isopropylpyrimidine, reference compound]
amount of leaked protein (fluorescence intensity per mg dura) [1]: showed an effect to reduce amount of the leaked protein
amount of leaked protein versus reference value ([1]; dose increased from 3 mg/kg to 10 mg/kg, intraperitoneal): did Dot reduced to the reference value
minimum amount showing maximum drug effect in this model ([1]; intraperitoneal): 3 mg/kg
5-HT2B receptor selectivity (5-HT2B receptor): 1000 times

SMILES: CC1CCN(CC[C@H]2CCCN2S(=O)(=O)c2cccc(O)c2)CC1 [SB-269970, (R)-3-(2-(2-(4-methylpiperidin-1-yl)ethyl)pyrrolidine-1-sulfonyl)phenol, reference compound]
amount of leaked protein versus reference value ([1]; dose increased from 3 mg/kg to 30 mg/kg, intraperitoneal): did not reduced the amount of leaked protein to the reference value
amount of leaked protein ([1]; from 10 mg/kg, intraperitoneal): showed the effect
minimum amount showing maximum drug effect in this model ([1]; intraperitoneal): 10 mg/kg

SMILES: COC1(C)c2ccccc2-c2ccc(C(=O)N=C(N)N)cc21.Cl (racemic) [Preparation 71]
leakage of the protein [1]: almost completely suppressed leakage of the protein

SMILES: Cl.NC(N)=NC(=O)c1ccc2c(c1)C1(CCCO1)c1ccccc1-2 (racemic) [Preparation 60]
leakage of the protein [1]: almost completely suppressed leakage of the protein

Ki (human 5-HT7 receptor): 0.4 to 310 nM
SMILES: NC(N)=NC(=O)c1ccc2c(c1)C(=NO)c1c(CO)cccc1-2 [Preparation 7, (9EZ)-N-(diaminomethylene)-9-hydroxyimino-8-hydroxymethyl-9H-fluorene-2-carboxamide]
